Experimental data taken from patent US20260284011A1, “COMPOUNDS FOR RESTORING SUSCEPTIBILITY TO BETA-LACTAM ANTIBIOTICS” (UNIVERSITY OF NOTRE DAME DU LAC, priority 2023, published 2026).

Experiments:
BlaR = BlaR (Staphylococcus aureus, UniProt P18357); test: Live-cell fluorescent assay for BlaR inhibition (Venus reporter); type: cell-based, S. aureus NRS144pCN52RI-Venus; conditions: compound at 100 mg/L^−1; CBAP 10 mg·L^−1; fluorescence after 2 h
From the text: Live-Cell Fluorescent Assay in Discovery and Mechanism of Action. We conceived of fluorescent constructs in the bla operon, for the purpose of screening (FIG. 2a). We removed the gene for the β-lactamase (blaZ) and put in its place individually the genes for the Green Fluorescent Protein (GFP), Venus (a yellow-fluorescent protein) or mCherry (a red-fluorescent protein) in the template plasmid pCN52. The three plasmids were named pCN52RI, pCN52RI-Venus and pCN52RI-mCherry, respectively. The genes for the fluorescent proteins were transcribed under the promoter of the blaZ gene and were regulated by the proteins BlaR and BlaI, as is the case for the wild-type bla operon.
We transformed separately S. aureus NRS144—a laboratory strain that accepts a foreign gene and harbors neither the bla nor the mec operons—with each of these plasmids. […] When induced, the fluorescent protein is produced and is detected (akin to expression of the resistance genes blaZ or mecA in typical MSSA and MRSA). […] The transformed strains were grown in tryptic soy broth medium for overnight culture and strain maintenance and incubated in cation-adjusted Mueller-Hinton broth medium for inhibitor screening in a 96-well microplate format. The culture without CBAP addition was the negative control. In order to select a desirable reporter construct, we compared the intensity of the fluorescence produced from each construct at the wavelengths given in FIG. 2a using the Cytation-5 multi-mode microplate reader. Among the three constructs, pCN52RI-Venus produced the best fluorescence intensity and pCN52RI-mCherry was the second best (FIG. 4).
(§1) The collection of the 100 compounds from the in-silico search was screened against S. aureus NRS144pCN52RI-Venus. The screening strategy was as follows. Bacteria grown to OD600 of 0.25 were exposed concurrently to CBAP (10 mg·L^−1) and the test compound (100 mg·L^−1). Fluorescence was recorded after two hours of incubation. OD600 values were also recorded to identify compounds with inherent antibacterial activity. Compound 1 (Chart 1) emerged—82% diminished fluorescence as an indication of the extent of BlaR inhibition—as a suitable template for structure elaboration. This effort led to the synthesis of several dozen benzimidazole and imidazole compounds. The progression of the iterative design is depicted in Chart 1 for four compounds, culminating in 4. […] The X-ray structures for the complexes of compounds 2 (non-covalent) and 4 (covalent) with the BlaR sensor domain are shown respectively in FIG. 2b (2.0 Å resolution) and FIG. 2c (1.97 Å resolution). Compound 4 makes a covalent bond with the catalytic Ser389 and creates a network of hydrogen bonds with the BlaR active site (FIG. 2c).
(§2) Fluorescent assay for screening of BlaR potential inhibitors. A 3-mL portion of lysogeny broth (LB) medium was inoculated with NRS144pCN52RI Venus from frozen stocks and grown overnight at 37° C. The overnight culture was then diluted 1:150 fold with fresh LB containing […] of erythromycin and incubated at 37° C. to an OD600 of 0.3, at which point fluorescence was induced by the addition of CBAP to a final concentration of 10 μg·mL^−1. The culture was aliquoted (99 L) into 96-well plate and 1 L of inhibitor solution (1 mg·mL^−1 in DMSO) was added to each well. Negative control (DMSO without CBAP) and positive control (CBAP without inhibitor) were included. The plate was incubated at 30° C. for 2 h with intermittent shaking. Fluorescence and OD600 measurements were taken by a Cytation-5 multimode microplate reader. Percent inhibition of BlaR and bacterial growth were calculated using absorbance unit (AU) and OD600 values of each sample entered into this formula: […]

[1] = system: S. aureus NRS144pCN52RI-Venus; test: Bacterial growth inhibition (OD600) in the fluorescent screening assay; type: cell-based, Staphylococcus aureus; conditions: compound at 100 mg/L^−1; OD600 after 2 h
Method: as §1, §2

Chain of BlaR (P18357 whole entry): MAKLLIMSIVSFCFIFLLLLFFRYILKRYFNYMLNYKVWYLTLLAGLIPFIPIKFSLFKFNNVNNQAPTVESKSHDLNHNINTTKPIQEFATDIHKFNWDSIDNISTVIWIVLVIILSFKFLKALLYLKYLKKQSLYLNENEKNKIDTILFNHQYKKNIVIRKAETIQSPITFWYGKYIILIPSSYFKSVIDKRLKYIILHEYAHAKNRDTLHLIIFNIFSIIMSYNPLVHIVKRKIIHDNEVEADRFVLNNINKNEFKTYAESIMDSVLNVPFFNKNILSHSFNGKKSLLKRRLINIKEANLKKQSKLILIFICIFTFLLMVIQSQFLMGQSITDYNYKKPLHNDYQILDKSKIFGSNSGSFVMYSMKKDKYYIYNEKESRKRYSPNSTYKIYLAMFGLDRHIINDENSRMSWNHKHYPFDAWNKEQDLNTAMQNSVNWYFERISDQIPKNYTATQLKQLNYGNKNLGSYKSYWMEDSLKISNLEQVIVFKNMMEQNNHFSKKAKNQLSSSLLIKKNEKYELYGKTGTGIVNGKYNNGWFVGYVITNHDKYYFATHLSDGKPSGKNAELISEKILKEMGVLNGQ

| SMILES | % Inhibition of BlaR (BlaR) [%] | % Inhibition of bacterial growth [1] |
| --- | --- | --- |
| OB(O)CSc1nc2ccccc2n1Cc1ccc(C(F)(F)F)cc1C(F)(F)F [Compound 3] | 98 | 20% |
| N#Cc1ccc2nc(N)n(Cc3ccc(C(F)(F)F)cc3C(F)(F)F)c2c1 [Compound 19] | 55 | 0% |
| COC(=O)c1ccc2nc(SCB(O)O)n(Cc3ccc(C(F)(F)F)cc3C(F)(F)F)c2c1 [Compound 33] | 95 | 13% |
| O=C(/C=C/c1ccc(F)cc1)NCc1ccc2nc(S(=O)(=O)O)n(Cc3ccc(C(F)(F)F)cc3C(F)(F)F)c2c1 [Compound 26] | 99 | 100% |
| COc1ccc(CSc2nc(CNC(=O)OCc3ccccc3)cn2Cc2ccc(C(F)(F)F)cc2C(F)(F)F)cc1 [Compound 65] | 19 | 0% |
| COC(=O)c1ccc2nc(SCCC#N)n(Cc3ccc(C(F)(F)F)cc3C(F)(F)F)c2c1 [Compound 38] | 89 | 16% |
| O=C(/C=C/c1ccc(C(F)(F)F)cc1F)NCc1ccc2nc(S)n(Cc3ccc(C(F)(F)F)cc3C(F)(F)F)c2c1 [Compound 27] | 79 | 55% |
| O=S(=O)(Cl)c1nc(CO)cn1Cc1ccc(C(F)(F)F)cc1C(F)(F)F [Compound 57] | 83 | 0% |
| NS(=O)(=O)c1nc([C@H](O)[C@H](O)CO)cn1Cc1ccccc1 [Compound 53] |  | 49% |
| O=C(/C=C/c1ccc(C(F)(F)F)cc1F)NCc1ccc2nc(S(=O)(=O)O)n(Cc3ccc(C(F)(F)F)cc3C(F)(F)F)c2c1 [Compound 28] | 92 | 100% |
| OB(O)Cc1nc2ccccc2n1Cc1ccc(C(F)(F)F)cc1C(F)(F)F [Compound 42] | 99 | 82% |
| OB(O)CCc1nc2ccccc2n1Cc1ccc(C(F)(F)F)cc1C(F)(F)F [Compound 46] | 0 | 49% |
| OCc1ccc2nc(S)n(Cc3ccc(C(F)(F)F)cc3C(F)(F)F)c2c1 [Compound 17] | 0 | 99% |
| OCC1NC(=S)N(c2ccc(C(F)(F)F)cc2)N1 (centres unmarked) [Compound 79] | 75 | 65% |
| O=S(=O)(O)c1nc2ccccc2n1Cc1ccc(F)cc1C(F)(F)F [Compound 11] | 78 | 0% |
| NCc1ccc2nc(S)n(Cc3ccc(C(F)(F)F)cc3C(F)(F)F)c2c1 [Compound 14] | 60 | 0% |
| OCc1nn(Cc2ccc(C(F)(F)F)cc2C(F)(F)F)c(=S)[nH]1 [Compound 78] | 70 | 56% |
| O=C(O)c1ccc2nc(SCB(O)O)n(Cc3ccc(C(F)(F)F)cc3C(F)(F)F)c2c1 [Compound 34] | 92 | 18% |
| O=S(=O)(O)c1nc2ccccc2n1Cc1ccc(Cl)cc1 [Compound 12] | 72 | 0% |
| OC[C@@H](O)[C@@H](O)c1cn(Cc2ccccc2)c(=S)[nH]1 | 11 | 0% |
| O=S(=O)(O)c1nc2ccccc2n1Cc1ccc(C(F)(F)F)cc1C(F)(F)F [Compound 1, 1-[[2,4-Bis(trifluoromethyl)phenyl]methyl]benzimidazole-2-sulfonic acid] | 82 | 0% |

| SMILES | % Inhibition of BlaR (BlaR) [%] | % Inhibition of bacterial growth [1] |
| --- | --- | --- |
| OCc1cn(Cc2ccc(C(F)(F)F)cc2C(F)(F)F)c(=S)[nH]1 [Compound 2, 4-(Hydroxymethyl)-1-[[2,4-bis(trifluoromethyl)phenyl]methyl]-2H-imidazole-2-thione] | 92 | 0% |
| FC(F)(F)c1ccc(Cn2c(=S)[nH]c3ccccc32)c(C(F)(F)F)c1 [Compound 8, 1-[[2,4-Bis(trifluoromethyl)phenyl]methyl]benzimidazole-2-thione] | 65 | 10% |
| OCc1nc2ccccc2n1Cc1ccc(C(F)(F)F)cc1C(F)(F)F [Compound 40] | 67 | 25% |
| COC(=O)c1ccc2nc(SCCCC#N)n(Cc3ccc(C(F)(F)F)cc3C(F)(F)F)c2c1 [Compound 39] | 92 | 25% |
| FC(F)(F)c1ccc(Cn2c(CBr)nc3ccccc32)c(C(F)(F)F)c1 [Compound 41] | 78 | 36% |
| O=C(CCc1ccc(F)cc1)NCc1ccc2nc(S(=O)(=O)O)n(Cc3ccc(C(F)(F)F)cc3C(F)(F)F)c2c1 [Compound 30] | 86 | 0% |
| COC(=O)c1ccc2nc(S)n(Cc3ccc(C(F)(F)F)cc3C(F)(F)F)c2c1 [Compound 15] | 10 | 0% |
| NSc1nc([C@H](O)[C@H](O)CO)cn1Cc1ccccc1 [Compound 52] | 33 | 0% |
| OCc1cn(Cc2ccc(C(F)(F)F)cc2C(F)(F)F)c(Cl)n1 [Compound 58] | 43 | 0% |
| Nc1nc2ccc(CO)cc2n1Cc1ccc(C(F)(F)F)cc1C(F)(F)F [Compound 21] | 89 | 0% |
| O=S(=O)(O)c1nccn1Cc1ccc(C(F)(F)F)cc1C(F)(F)F [Compound 54] | 18 | 0% |
| NCc1cn(Cc2ccc(C(F)(F)F)cc2C(F)(F)F)c(=S)[nH]1 [Compound 48] | 50 | 90% |
| CC(C)(C)OC(=O)NCc1cn(Cc2ccc(C(F)(F)F)cc2C(F)(F)F)c(=S)[nH]1 [Compound 47] |  | 0% |
| O=S(=O)(O)c1nc(CO)cn1Cc1ccc(C(F)(F)F)cc1C(F)(F)F [Compound 60] | 0 | 0% |
| C[N+]12CC(=O)O[B-]1(CSc1nc3ccccc3n1Cc1ccc(C(F)(F)F)cc1C(F)(F)F)OC(=O)C2 (centres unmarked) [Compound 31, (T-4)-[N-[(Carboxy-κO)methyl]-N-methylglycinato(2-)-κN,κO][[N^1-[[2,4-bis(trifluoromethyl)phenyl]methyl]-1H-benzimidazole-1-yl]thiomethyl]boron] |  | 13% |
| N#Cc1ccc2c(c1)[nH]c(=S)n2Cc1ccc(C(F)(F)F)cc1C(F)(F)F [Compound 9, 1-[2,4-bis(trifluoromethyl)benzyl]-5-nitrile-benzimidazole-2-thione] |  | 97% |
| O=C(/C=C/c1ccc(F)cc1)NCc1ccc2nc(S(=O)(=O)O)n(Cc3ccc(C(F)(F)F)cc3C(F)(F)F)c2c1 [Compound 24] |  | 24, R^4 = F, R^5 = H, X = SO3H, 100; 100% |
| COC(=O)c1ccc2nc(N)n(Cc3ccc(C(F)(F)F)cc3C(F)(F)F)c2c1 [Compound 20] |  | 0% |
| O=S(=O)(F)c1nc(CO)cn1Cc1ccc(C(F)(F)F)cc1C(F)(F)F [Compound 59] |  | 83% |
| OCCc1nc2ccccc2n1Cc1ccc(C(F)(F)F)cc1C(F)(F)F [Compound 44] |  | 40% |
